For six compounds, IC50 results are on record in US10059689B2, “Substituted heteroaryl compounds and methods of use” (Sunshine Lake Pharma Co., Ltd., priority 2014, dated 2018).

The target in this assay is T1, JAK3 (h) (Homo sapiens, UniProt P52333).
T1 construct: purchased Millipore UK Ltd (contract assay service)
T1 sequence (P52333 1-1124): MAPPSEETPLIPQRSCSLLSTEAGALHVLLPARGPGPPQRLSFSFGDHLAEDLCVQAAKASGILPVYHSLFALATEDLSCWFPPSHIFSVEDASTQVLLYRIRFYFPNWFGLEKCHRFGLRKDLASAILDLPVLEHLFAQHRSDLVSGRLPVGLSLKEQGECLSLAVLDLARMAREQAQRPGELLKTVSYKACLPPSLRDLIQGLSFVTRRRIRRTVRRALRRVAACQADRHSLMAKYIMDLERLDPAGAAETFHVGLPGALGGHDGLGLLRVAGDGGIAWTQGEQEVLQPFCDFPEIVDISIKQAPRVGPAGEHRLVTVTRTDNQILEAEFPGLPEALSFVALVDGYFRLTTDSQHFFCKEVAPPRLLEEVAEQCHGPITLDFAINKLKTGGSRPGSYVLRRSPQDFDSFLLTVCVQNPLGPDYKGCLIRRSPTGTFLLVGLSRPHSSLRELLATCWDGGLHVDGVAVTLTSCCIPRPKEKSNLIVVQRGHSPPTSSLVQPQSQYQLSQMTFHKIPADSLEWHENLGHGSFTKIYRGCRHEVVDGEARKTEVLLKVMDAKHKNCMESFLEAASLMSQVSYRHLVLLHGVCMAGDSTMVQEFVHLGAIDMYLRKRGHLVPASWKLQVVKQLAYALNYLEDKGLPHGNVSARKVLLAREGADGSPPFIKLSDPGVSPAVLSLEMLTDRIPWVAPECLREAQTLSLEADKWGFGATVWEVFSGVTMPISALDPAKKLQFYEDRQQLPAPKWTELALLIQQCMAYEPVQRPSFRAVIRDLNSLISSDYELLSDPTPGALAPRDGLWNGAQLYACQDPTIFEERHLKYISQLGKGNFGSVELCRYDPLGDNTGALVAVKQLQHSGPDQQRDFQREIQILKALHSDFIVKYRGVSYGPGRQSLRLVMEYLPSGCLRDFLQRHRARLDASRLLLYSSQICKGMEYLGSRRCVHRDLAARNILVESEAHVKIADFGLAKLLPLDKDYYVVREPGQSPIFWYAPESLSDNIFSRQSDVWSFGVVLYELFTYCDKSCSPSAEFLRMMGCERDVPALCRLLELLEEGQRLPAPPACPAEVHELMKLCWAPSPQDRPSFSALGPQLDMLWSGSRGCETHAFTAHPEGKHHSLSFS
Put plainly: JAK3 (h) kinase assay. It counts as biochemical. The procedure:
Kinase assays can be performed by measurement of incorporation of γ-33P ATP into immobilized myelin basic protein (MBP). High binding white 384 well plates (Greiner) are coated with MBP (Sigma #M-1891) by incubation of 60 μL/well of 20 μg/mL MBP in Tris-buffered saline (TBS; 50 mM Tris pH 8.0, 138 mM NaCl, 2.7 mM KCl) for 24 h at 4° C. Plates are washed 3× with 100 μL TBS. Kinase reactions are carried out in a total volume of 34 μL in kinase buffer (according to the need to make, for example, 5 mM Hepes pH 7.6, 15 mM NaCl, 0.01% bovine gamma globulin (Sigma #I-5506), 10 mM MgCl2, 1 mM DTT, 0.02% TritonX-100). Compound dilutions are performed in DMSO and added to assay wells to a final DMSO concentration of 1%. Each data point is measured in duplicate, and at least two duplicate assays are performed for each individual compound determination. Enzyme is added to final concentrations of 10 nM or 20 nM, for example. A mixture of unlabeled ATP and γ-33P ATP is added to start the reaction (2×10^6 cpm of γ-33P ATP per well (3000 Ci/mmole) and 10 μM unlabeled ATP, typically. The reactions are carried out for 1 h at room temperature with shaking Plates are washed 7× with TBS, followed by the addition of 50 μL/well scintillation fluid (Wallac). Plates are read using a Wallac Trilux counter. This is only one format of such assays; various other formats are possible, as known to one skilled in the art.
The above assay procedure can be used to determine the IC50 for inhibition and/or the inhibition constant, Ki. The IC50 is defined as the concentration of compound required to reduce the enzyme activity by 50% under the condition of the assay. The IC50 value is estimated by preparing a 10 point curve using a ½ log dilution series (for example, a typical curve may be prepared using the following compound concentrations: 3 μM, 1 μM, 0.3 μM, 0.1 μM, 0.03 μM, 0.01 μM, 0.003 μM, 0.001 μM, 0.0003 μM and 0 μM).
JAK3 (h) is incubated with 8 mM MOPS pH 7.0, 0.2 mM EDTA, 500 μM GGEEEEYFELVKKKK, 10 mM MgAcetate and [γ-^33P-ATP] (specific activity approx. 500 cpm/pmol, concentration as required). The reaction is initiated by the addition of the MgATP mix. After incubation for 40 minutes at room temperature, the reaction is stopped by the addition of 3% phosphoric acid solution. 10 μL of the reaction is then spotted onto a P30 filtermat and washed three times for 5 minutes in 75 mM phosphoric acid and once in methanol prior to drying and scintillation counting.
The kinase assays described herein were performed at Millipore UK Ltd, Dundee Technology Park, Dundee DD2 1SW, UK.
Compound `Cc1nn(C)cc1Nc1ncc(Cl)c(NC2CCN(c3ccc(C#N)cn3)CC2)n1` [Ex. 10, 6-(4-((5-chloro-2-((1,3-dimethyl-1H-pyrazol-4-yl)amino)pyrimidin-4-yl)amino)piperidin-1-yl)nicotinonitrile] displayed a concentration for half-maximal inhibition (IC50) of 82 nM.

Take `Cc1c2ccc(Nc3ncc(Cl)c(NC4CCN(c5ccc(C#N)nn5)CC4)n3)cc2nn1C` [Ex. 12, 6-(4-((5-chloro-2-((2,3-dimethyl-2H-indazol-6-yl)amino)pyrimidin-4-yl)amino)piperidin-1-yl)pyridazine-3-carbonitrile]: the IC50 was 20 nM.

`CN(c1nc(Nc2cnn(C)c2)ncc1Cl)C1CCN(c2ccc(C#N)cn2)CC1` [Ex. 5, 6-(4-((5-chloro-2-((1-methyl-1H-pyrazol-4-yl)amino)pyrimidin-4-yl) (methyl)amino)piperidin-1-yl)nicotinonitrile]: it took 13 nM to reach half-maximal inhibition (IC50).

`Cc1c2ccc(Nc3ncc(Cl)c(NC4CCN(c5ccc(C#N)cn5)CC4)n3)cc2nn1C` [Ex. 4]: inhibition was half-maximal at 21 nM (IC50).

In turn, `Cc1nn(C)cc1Nc1ncc(Cl)c(NC2CCN(c3ccc(C#N)nn3)CC2)n1` [Ex. 11, 6-(4-((5-chloro-2-((1,3-dimethyl-1H-pyrazol-4-yl)amino)pyrimidin-4-yl)amino)piperidin-1-yl)pyridazine-3-carbonitrile] displayed an IC50 of 263 nM.

The compound `Cc1cc(Nc2ncc(Cl)c(NC3CCN(c4ccc(C#N)nn4)CC3)n2)nn1C` [Ex. 13, 6-(4-((5-chloro-2-((1,5-dimethyl-1H-pyrazol-3-yl)amino)pyrimidin-4-yl)amino)piperidin-1-yl)pyridazine-3-carbonitrile] showed an IC50 of 73 nM.

For orientation: IC50 means the midpoint of a concentration-inhibition curve.
